# Test results from US11028077B2, “Crystalline pharmaceutical and methods of preparation and use thereof” (NOVARTIS PHARMACEUTICALS CORPORATION, priority 2008, dated 2021).
# Key:
# mini-pigs = test: Pilot mini-pig dermal study
# dogs (beagles) = test: Cardiovascular effects in conscious telemetry-instrumented dogs, IV bolus; format: in vivo, dog; settings: IV bolus injection
# Solubility studies = format: physicochemical
# dogs [1] = test: Pilot ocular tolerance / PK of topically administered compound in dogs; format: in vivo, dog; settings: up to 10% strength at 3 doses/day
# rats [2] = test: 13-week IV toxicity study in rats with 4-week recovery (toxicity and plasma exposure); format: in vivo, rat
# rabbits [3] = test: Single dose ocular tolerance in rabbits; format: in vivo, rabbit; settings: rabbits (10%)
# [4] = Single dose ocular and IV ADME study with [14C]-compound in rats, quantitative whole body autoradiography; format: in vivo, rat; settings: tissue distribution in pigmented vs albino rats
# CD-1 (ICR) BR mice = test: In vivo mouse bone marrow micronucleus assay; settings: repeated IV administrations
# rats [5] = test: CNS effects in rats, single bolus IV injection; format: in vivo, rat; settings: 10.0 mg/kg IV, 1 minute to 6 hours postdose, 2/6 animals at each time point
# Text: No effect on any other parameters was observed.
# [6] = test system: SEB stimulated IL-2 release in whole human blood; test: cells; format: cell-based; settings: read-out: IC50, inhibition of SEB stimulated IL-2 release
# [7] = Skin transport studies on microtomed human skin; format: in vitro ADME; settings: 1% (w/w) prototypes; [^14C]-compound
# Text: Prototypes have been developed and tested on microtomed human skin from elective surgery at 1% (w/w). The forms include gels, ointment, or lotion. […]
# [8] = Phase 1 clinical trial, plasma PK analysis; format: in vivo, human
# Procedure: Samples were also obtained at 48 hours post dose on Days 1, 14 and 27 and a single blood sample was collected at the follow-up visit at the end of the study.
# dogs [9] = test: Acute toxicity, escalating single dose IV and 7-day repeated dose with TK in dogs; format: in vivo, dog; settings: escalating single dose IV and 7-day repeated dose
# Procedure: 4. Acute Toxicity Studies: For single dose IV in rats, the no observable adverse effect level (NOAEL) was 10 mg/kg IV. For escalating single dose IV and 7-day repeated dose with TK (toxicokinetics) in dogs, the NOAEL was 10 mg/kg IV. For single dose ocular tolerance in rabbits, the NOAEL was 3.5 mg/eye/3× per day (10%).
# rabbits [10] = test: 13-week ocular toxicity study in rabbits with 4-week recovery (toxicity and TK); settings: rabbits (3%)
# rats [11] = test: Pilot rat dermal study; format: in vivo; settings: 1% lotion, ointment, gel, DMSO; TID seven days, 10 mg/cm^2
# Procedure: The safety and tolerability of prototypical dermal formulations (1% lotion, ointment, and gel) were assessed on rats given TID for seven consecutive days—approximately 6 cm^2 with 10 mg/cm^2.
# [12] = daily IV bolus 3 mg/kg, Week 13
# [13] = daily IV bolus 10 mg/kg, Week 13
# [14] = daily IV bolus 30 mg/kg, Week 13
compound,measurement,setting,value
CS(=O)(=O)c1cccc(C[C@H](NC(=O)c2c(Cl)cc3c(c2Cl)CCN(C(=O)c2ccc4ccoc4c2)C3)C(=O)O)c1 [compound of Formula I],toxicity,"mini-pigs; DMSO, gel, ointment, lotion at 1%, dermal TID for 7 days, 10 mg/cm^2",No toxicity
same,plasma level,"mini-pigs; all groups, below the LLOQ",< 0.5 ng/mL
same,effects on electrocardiography or hemodynamic parameters,dogs (beagles),No effects on electrocardiography or hemodynamic parameters
same,solubility,Solubility studies; ethanol/glycol/transcutol solution,10 % (w/w)
same,solubility,Solubility studies; water/glycol/transcutol solution,2 % (w/w)
same,ocular safety and tolerability,dogs [1],safe and well tolerated
same,AUC0-n,"rats [2]; daily IV bolus 3 mg/kg, Day 1",148.3 ng·h/mL
same,Cmax,"rats [2]; daily IV bolus 3 mg/kg, Day 1",305.2 ng/mL
same,AUC0-n,rats [2]; [12],241.4 ng·h/mL
same,Cmax,rats [2]; [12],377.5 ng/mL
same,AUC0-n,"rats [2]; daily IV bolus 10 mg/kg, Day 1",535.6 ng·h/mL
same,Cmax,"rats [2]; daily IV bolus 10 mg/kg, Day 1",1045.3 ng/mL
same,AUC0-n,rats [2]; [13],907.1 ng·h/mL
same,Cmax,rats [2]; [13],1691.5 ng/mL
same,AUC0-n,"rats [2]; daily IV bolus 30 mg/kg, Day 1",2345.5 ng·h/mL
same,Cmax,"rats [2]; daily IV bolus 30 mg/kg, Day 1",5117.3 ng/mL
same,AUC0-n,rats [2]; [14],7471.5 ng·h/mL
same,Cmax,rats [2]; [14],16932.8 ng/mL
same,NOAEL,rabbits [3],3.5 mg/eye/3× per day
same,binding to melanin,[4],did not preferentially bind to melanin
same,micronuclei in polychromatic erythrocytes,CD-1 (ICR) BR mice,negative
same,CNS observation,rats [5],Transient miosis
same,IC50,[6],69 nM
same,concentration in dermis,[7],greater than 10 micromolar
same,dose penetration,[7],2-4%
same,plasma concentration,"[8]; 0.1% dose strength, single and multiple doses, all timepoints (BLOQ)",< 0.500 ng/mL
same,plasma concentration,"[8]; 0.3% dose strength, single and multiple doses, all timepoints (BLOQ)",< 0.500 ng/mL
same,plasma concentration,"[8]; 1% dose strength, 3 of 5 subjects (BLOQ)",< 0.500 ng/mL
same,plasma concentration,"[8]; 5% dose strength, generally not detectable after the first hour",< 3 ng/mL
same,NOAEL,dogs [9],10 mg/kg
same,NOAEL,rabbits [10],1.05 mg/eye/3× per day
same,serum level,rats [11],detectable in serum
